Results on 54 molecules are retold here after ChEMBL document CHEMBL1697692, “Developing structure-activity relationships for the prediction of hepatotoxicity” (Chem Res Toxicol, 2010).

The structures appear in SMILES notation.

This data set deals with Hepatotoxicity. As to the kind of experiment: Literature-mined public compounds from Greene et al multi-species hepatotoxicity modelling dataset.
For the molecule `CS(=O)(=O)O.Cc1ccc(N(CC2=NCCN2)c2cccc(O)c2)cc1` [PHENTOLAMINE MESYLATE], the Hepatotoxicity result is reported as “HH: Evidence of human hepatotoxicity”.
The same measure for `S=C=Nc1ccccc1` [PHENYLISOTHIOCYANATE]: “AH: Evidence for animal hepatotoxicity but not tested in humans”; for `CC(N)C(O)c1ccccc1.Cl` (centres undefined) [PHENYLPROPANOLAMINE HYDROCHLORIDE]: “NE: No evidence of hepatotoxicity in any species”.
The same measure for `O=C1NC(=O)C(c2ccccc2)(c2ccccc2)N1` [PHENYTOIN]: “HH: Evidence of human hepatotoxicity”.
Take `CNC(=O)Oc1ccc2c(c1)[C@]1(C)CCN(C)[C@@H]1N2C` [PHYSOSTIGMINE]: the Hepatotoxicity result is recorded as “NE: No evidence of hepatotoxicity in any species”.
Take `CC[C@@H]1C(=O)OC[C@@H]1Cc1cncn1C` [PILOCARPINE]: the Hepatotoxicity result is on record as “NE: No evidence of hepatotoxicity in any species”.
The same measure for `O=c1[nH]c2ccccc2n1C1CCN(CCCC(c2ccc(F)cc2)c2ccc(F)cc2)CC1` [PIMOZIDE]: “NE: No evidence of hepatotoxicity in any species”; for `CC(N/C(=N\C#N)Nc1ccncc1)C(C)(C)C` (centres undefined) [PINACIDIL ANHYDROUS]: “NE: No evidence of hepatotoxicity in any species”.
Consider `CC(C)NCC(O)COc1cccc2[nH]ccc12` (centres undefined) [PINDOLOL], for which the Hepatotoxicity entry is “NE: No evidence of hepatotoxicity in any species”.
On to `CCc1ccc(CCOc2ccc(CC3SC(=O)NC3=O)cc2)nc1` (centres undefined) [PIOGLITAZONE], for which the Hepatotoxicity result is on record as “WE: Weak evidence (<10 case reports) of human hepatotoxicity”.
Take `Cc1cccc(Nc2cc(Cl)nc(SCC(=O)O)n2)c1C` [PIRINIXIC ACID]: the Hepatotoxicity result was “AH: Evidence for animal hepatotoxicity but not tested in humans”.
As to `CN1C(C(=O)Nc2ccccn2)=C(O)c2ccccc2S1(=O)=O` [PIROXICAM], the Hepatotoxicity entry is “HH: Evidence of human hepatotoxicity”.
The value for `CC(C(=O)O)c1ccc(N2CC=CC2)c(Cl)c1` (centres undefined) [PIRPROFEN] was “HH: Evidence of human hepatotoxicity”; that for `C[C@]12C=CC(=O)C=C1CC[C@@H]1[C@@H]2C(=O)C[C@@]2(C)[C@H]1CC[C@]2(O)C(=O)CO` [PREDNISONE] was “WE: Weak evidence (<10 case reports) of human hepatotoxicity”; that for `CC(=O)[C@H]1[C@H](C#N)C[C@H]2[C@@H]3CC=C4C[C@@H](O)CC[C@]4(C)[C@H]3CC[C@@]21C` [PREGNENOLONE CARBONITRILE] was “AH: Evidence for animal hepatotoxicity but not tested in humans”.
For `COc1cc(NC(C)CCCN)c2ncccc2c1.O=P(O)(O)O.O=P(O)(O)O` (centres undefined) [PRIMAQUINE PHOSPHATE], the Hepatotoxicity entry is “WE: Weak evidence (<10 case reports) of human hepatotoxicity”.
For `CCC1(c2ccccc2)C(=O)NCNC1=O` [PRIMIDONE], the Hepatotoxicity result is recorded as “NE: No evidence of hepatotoxicity in any species”.
On to `CCCN(CCC)S(=O)(=O)c1ccc(C(=O)O)cc1` [PROBENECID], for which the Hepatotoxicity result was “WE: Weak evidence (<10 case reports) of human hepatotoxicity”.
`CC(C)(Sc1cc(C(C)(C)C)c(O)c(C(C)(C)C)c1)Sc1cc(C(C)(C)C)c(O)c(C(C)(C)C)c1` [PROBUCOL]: the Hepatotoxicity result was “NE: No evidence of hepatotoxicity in any species”.
Consider `CNNCc1ccc(C(=O)NC(C)C)cc1.Cl` [PROCARBAZINE HYDROCHLORIDE], for which the Hepatotoxicity entry is listed as “HH: Evidence of human hepatotoxicity”.
As to `CN1CCN(CCCN2c3ccccc3Sc3ccc(Cl)cc32)CC1.O=C(O)/C=C\C(=O)O.O=C(O)/C=C\C(=O)O` [PROCHLORPERAZINE MALEATE], the Hepatotoxicity result is on record as “HH: Evidence of human hepatotoxicity”.
The same measure for `CC(=O)[C@H]1CC[C@H]2[C@@H]3CCC4=CC(=O)CC[C@]4(C)[C@H]3CC[C@]12C` [PROGESTERONE]: “HH: Evidence of human hepatotoxicity”; for `CN(C)CCCN1c2ccccc2Sc2ccccc21.Cl` [PROMAZINE HYDROCHLORIDE]: “WE: Weak evidence (<10 case reports) of human hepatotoxicity”; for `CC(CN1c2ccccc2Sc2ccccc21)N(C)C.Cl` (centres undefined) [PROMETHAZINE HYDROCHLORIDE]: “NE: No evidence of hepatotoxicity in any species”.
For `CC(C)c1cccc(C(C)C)c1O` [PROPOFOL], the Hepatotoxicity result is “NE: No evidence of hepatotoxicity in any species”.
The same measure for `CC(C)NCC(O)COc1cccc2ccccc12` (centres undefined) [PROPRANOLOL]: “NE: No evidence of hepatotoxicity in any species”; for `CN[C@@H](C)[C@@H](O)c1ccccc1.Cl` [PSEUDOEPHEDRINE HYDROCHLORIDE]: “NE: No evidence of hepatotoxicity in any species”; for `COc1ccc(C[C@H](N)C(=O)N[C@H]2[C@@H](O)[C@H](n3cnc4c(N(C)C)ncnc43)O[C@@H]2CO)cc1` [PUROMYCIN]: “AH: Evidence for animal hepatotoxicity but not tested in humans”.
The value for `NC(=O)c1cnccn1` [PYRAZINAMIDE] was “HH: Evidence of human hepatotoxicity”.
In the case of `CN(C)C(=O)Oc1ccc[n+](C)c1.[Br-]` [PYRIDOSTIGMINE BROMIDE], the Hepatotoxicity entry is listed as “NE: No evidence of hepatotoxicity in any species”.
Consider `Cc1ncc(CO)c(CO)c1O` [PYRIDOXINE], for which the Hepatotoxicity entry is “NE: No evidence of hepatotoxicity in any species”.
The value for `CCc1nc(N)nc(N)c1-c1ccc(Cl)cc1` [PYRIMETHAMINE] was “HH: Evidence of human hepatotoxicity”; that for `C=C[C@H]1C[N@@]2CC[C@H]1C[C@@H]2[C@@H](O)c1ccnc2ccc(OC)cc12` [QUINIDINE] was “HH: Evidence of human hepatotoxicity”; that for `C=C[C@H]1CN2CC[C@H]1C[C@H]2[C@H](O)c1ccnc2ccc(OC)cc12.C=C[C@H]1CN2CC[C@H]1C[C@H]2[C@H](O)c1ccnc2ccc(OC)cc12.O.O.O=S(=O)(O)O` [QUININE SULFATE] was “HH: Evidence of human hepatotoxicity”.
The value for `C=C[C@H]1C[N@@]2CC[C@H]1C[C@H]2[C@H](O)c1ccnc2ccc(OC)cc12` [QUININE] was “HH: Evidence of human hepatotoxicity”; that for `CCO[C@@H](Cc1ccc(OCCN2c3ccccc3Oc3ccccc32)cc1)C(=O)O` [RAGAGLITAZAR] was “NE: No evidence of hepatotoxicity in any species”.
Consider `O=C(c1ccc(OCCN2CCCCC2)cc1)c1c(-c2ccc(O)cc2)sc2cc(O)ccc12` [RALOXIFENE], for which the Hepatotoxicity result was “WE: Weak evidence (<10 case reports) of human hepatotoxicity”.
For `CNC(=C[N+](=O)[O-])NCCSCc1ccc(CN(C)C)o1` [RANITIDINE], the Hepatotoxicity entry is reported as “WE: Weak evidence (<10 case reports) of human hepatotoxicity”.
On to `NC(=O)c1ncn([C@@H]2O[C@H](CO)[C@@H](O)[C@H]2O)n1` [RIBAVIRIN], for which the Hepatotoxicity result is on record as “WE: Weak evidence (<10 case reports) of human hepatotoxicity”.
As for `CO[C@H]1/C=C/O[C@@]2(C)Oc3c(C)c(O)c4c(c3C2=O)C2=NC3(CCN(CC(C)C)CC3)NC2=C(NC(=O)/C(C)=C\C=C\[C@H](C)[C@H](O)[C@@H](C)[C@@H](O)[C@@H](C)[C@H](OC(C)=O)[C@@H]1C)C4=O` [RIFABUTIN], the Hepatotoxicity entry is “HH: Evidence of human hepatotoxicity”.
Turning to `CO[C@H]1/C=C/O[C@@]2(C)Oc3c(C)c(O)c4c(O)c(c(/C=N/N5CCN(C)CC5)c(O)c4c3C2=O)NC(=O)/C(C)=C\C=C\[C@H](C)[C@H](O)[C@@H](C)[C@@H](O)[C@@H](C)[C@H](OC(C)=O)[C@@H]1C` [RIFAMPIN], the Hepatotoxicity result is reported as “WE: Weak evidence (<10 case reports) of human hepatotoxicity”.
The same measure for `Nc1nc2ccc(OC(F)(F)F)cc2s1` [RILUZOLE]: “HH: Evidence of human hepatotoxicity”; for `Cc1nc2n(c(=O)c1CCN1CCC(c3noc4cc(F)ccc34)CC1)CCCC2` [RISPERIDONE]: “HH: Evidence of human hepatotoxicity”.
As for `CC(C)c1nc(CN(C)C(=O)N[C@H](C(=O)N[C@@H](Cc2ccccc2)C[C@H](O)[C@H](Cc2ccccc2)NC(=O)OCc2cncs2)C(C)C)cs1` [RITONAVIR], the Hepatotoxicity entry is “HH: Evidence of human hepatotoxicity”.
The same measure for `CN(CCOc1ccc(CC2SC(=O)NC2=O)cc1)c1ccccn1` (centres undefined) [ROSIGLITAZONE]: “WE: Weak evidence (<10 case reports) of human hepatotoxicity”; for `C=C(C)[C@H]1Cc2c(ccc3c2O[C@@H]2COc4cc(OC)c(OC)cc4[C@@H]2C3=O)O1` [ROTENONE]: “AH: Evidence for animal hepatotoxicity but not tested in humans”.
Consider `CC(C)(C)NC(=O)[C@@H]1C[C@@H]2CCCC[C@@H]2CN1C[C@@H](O)[C@H](Cc1ccccc1)NC(=O)[C@H](CC(N)=O)NC(=O)c1ccc2ccccc2n1.CS(=O)(=O)O` [SAQUINAVIR MESYLATE], for which the Hepatotoxicity entry is given as “HH: Evidence of human hepatotoxicity”.
For `CN[C@H]1CC[C@@H](c2ccc(Cl)c(Cl)c2)c2ccccc21` [SERTRALINE], the Hepatotoxicity result is on record as “WE: Weak evidence (<10 case reports) of human hepatotoxicity”.
`O=C([O-])O.[Na+]` [SODIUM BICARBONATE]: the Hepatotoxicity entry was “AH: Evidence for animal hepatotoxicity but not tested in humans”.
The same measure for `[Cl-].[Na+]` [SODIUM CHLORIDE]: “NE: No evidence of hepatotoxicity in any species”; for `OC[C@@H](O)[C@@H](O)[C@H](O)[C@@H](O)CO` [SORBITOL]: “NE: No evidence of hepatotoxicity in any species”; for `CC(=O)S[C@@H]1CC2=CC(=O)CC[C@]2(C)[C@H]2CC[C@@]3(C)[C@@H](CC[C@@]34CCC(=O)O4)[C@H]12` [SPIRONOLACTONE]: “HH: Evidence of human hepatotoxicity”.
Turning to `Cc1cn([C@H]2C=C[C@@H](CO)O2)c(=O)[nH]c1=O` [STAVUDINE], the Hepatotoxicity entry is recorded as “HH: Evidence of human hepatotoxicity”.
As to `CN[C@@H]1[C@H](O[C@H]2[C@H](O[C@H]3[C@H](O)[C@@H](O)[C@H](N=C(N)N)[C@@H](O)[C@@H]3N=C(N)N)O[C@@H](C)[C@]2(O)C=O)O[C@@H](CO)[C@H](O)[C@H]1O.CN[C@@H]1[C@H](O[C@H]2[C@H](O[C@H]3[C@H](O)[C@@H](O)[C@H](N=C(N)N)[C@@H](O)[C@@H]3N=C(N)N)O[C@@H](C)[C@]2(O)C=O)O[C@@H](CO)[C@H](O)[C@H]1O.O=S(=O)(O)O.O=S(=O)(O)O.O=S(=O)(O)O` [STREPTOMYCIN SULFATE], the Hepatotoxicity result was “NE: No evidence of hepatotoxicity in any species”.
